From patent publication US20020132855A1, “Use of acetaminophen to prevent and treat arteriosclerosis” (priority 2000, published 2002)

Columns and labels:
[1] = test system: fatty streaks in the blood vessels of rabbits; assay: Fatty streak formation in aorta of cholesterol-fed rabbits; type: in vivo, New Zealand white rabbits; settings: rabbits on 1% cholesterol chow, 12 weeks
Source text: This investigation used an experimental system in which fatty streaks are induced in the blood vessels of rabbits by incorporation of 1 % cholesterol in their food. For further detail, see A. A. Taylor and C. V. Smith, Circulation 18 I-697 (1999). Similar experimental systems have been used previously for the evaluation of the efficacy of pharmaceutical compounds for treating, preventing, and regressing atherosclerosis. For example, see Daugherty, A., et al., “Probucol Attentuates the Development of Aortic Atherosclerosis in Cholesterol-Fed Rabbits,” 98(2) Br. J. Pharm. 612-18 (1989), which is incorporated by reference herein.
(§1) Twenty-three, six-week old male New Zealand white rabbits obtained from Myrtle's Rabbitry (Houston, Tex.) and weighing between about 1.8 kg and 2 kg were separated into two groups: Group 1 (experimental) having 12 rabbit/group and Group 2 (control) having 11 rabbits/group. At the beginning of the study, all rabbits were allowed water ad libitum and ate normal rabbit chow.
After a two week acclimatization period, all of the rabbits were then placed on normal rabbit chow supplemented with 1% cholesterol (ICN Biochemicals, Inc., Costa Mesa, Calif.), in order to induce fatty streak formation in their blood vessel walls. […] The cages were monitored daily in order to assure that each rabbit consumed the contents of his respective water bottle. […]

[2] = Total plasma cholesterol levels in cholesterol-fed rabbits; type: in vivo, New Zealand white rabbits
Source text: Twenty-three, six-week old male New Zealand white rabbits obtained from Myrtle's Rabbitry (Houston, Tex.) and weighing between about 1.8 kg and 2 kg were separated into two groups: Group 1 (experimental) having 12 rabbit/group and Group 2 (control) having 11 rabbits/group. At the beginning of the study, all rabbits were allowed water ad libitum and ate normal rabbit chow. After a two week acclimatization period, all of the rabbits were then placed on normal rabbit chow supplemented with 1% cholesterol (ICN Biochemicals, Inc., Costa Mesa, Calif.), in order to induce fatty streak formation in their blood vessel walls. Rabbits in Group 1 were switched from water to an acetaminophen solution for about a 40 mg/kgrabbit APAP dose. A 40 mg/kg dose of APAP in a 2.5 kg rabbit is equivalent to about a 2800 mg/day dose in a 70 kg human. The other group of rabbits remained on water for the remainder of the study. The cages were monitored daily in order to assure that each rabbit consumed the contents of his respective water bottle. After cannulating the femoral artery and advancing into the distal aorta region of each rabbit, blood was aspirated therefrom for isolation of LDL fraction. The blood of each rabbit was drawn into 1000 U of Heparin sodium in order to prevent coagulation, then the plasma was separated therefrom via centrifugation at 2000 rpm for ten minutes. […]

[3] = test system: low density lipoprotein (LDL); settings: literature report; cited from earlier work
isolated LDL [4] = assay: Dienes analysis of copper-mediated oxidation of isolated LDL; design: species or system New Zealand white rabbits; settings: 0.1 mg/ml LDL from APAP-fed rabbits, 5 μM CuSO4, 37° C., 6 hour period, FIG. 1
Description: LDL Isolation: Plasma LDL was prepared by ultracentrifuation of a blood sample as disclosed in Havel, “The Distribution and Chemical Composition of Ultracentrifugally Separated Lpoproteins in Human Serum,” 34 JI. Clin. Inv. 1345 […], within a density cutoff of 1.020 g/ml to 1.055 g/ml and with the addition of 0.5 mg/ml ethylenediaminetetracetic acid ('EDTA') thereto. After adding a sample of this mixture to a semi-permable bag, the LDL was dialyzed therefrom against a vacuum-degassed 0.01 M Tris solution containing 0.15 M NaCl and 0.1 mg/ml EDTA under dark conditions and at 4° C. for 48 hours, followed by dialysis overnight using the same equipment but with a 0.01M phosphate buffer solution containing 0.15 M NaCl and no EDTA. The dialyzed LDL protein concentrations were then determined via the method set forth in Lowry, 'Protein Measurement with the Folin Phenol Reagent,' 226 J. Biol. Chem. 497-509 (1951). […] Analysis: The kinetics of these copper-mediated oxidation reactions were followed at 10 minute intervals for a total period of 6 hours by monitoring changes in absorbance at 234 nm of each mixture using a Model UV-2101PC spectrophotometer available from Shimadzu. […]

oxysterols in LDL = assay: Oxysterol concentrations in LDL isolated from cholesterol-fed rabbits; type: in vivo, New Zealand white rabbits
Description: LDL Isolation: Plasma LDL was prepared by ultracentrifuation of a blood sample as disclosed in Havel, “The Distribution and Chemical Composition of Ultracentrifugally Separated Lpoproteins in Human Serum,” 34 JI. Clin. Inv. 1345 […], within a density cutoff of 1.020 g/ml to 1.055 g/ml and with the addition of 0.5 mg/ml ethylenediaminetetracetic acid (‘EDTA’) thereto. After adding a sample of this mixture to a semi-permable bag, the LDL was dialyzed therefrom against a vacuum-degassed 0.01 M Tris solution containing 0.15 M NaCl and 0.1 mg/ml EDTA under dark conditions and at 4° C. for 48 hours, followed by dialysis overnight using the same equipment but with a 0.01M phosphate buffer solution containing 0.15 M NaCl and no EDTA. The dialyzed LDL protein concentrations were then determined via the method set forth in Lowry, ‘Protein Measurement with the Folin Phenol Reagent,’ 226 J. Biol. Chem. 497-509 (1951).
as §1
After a two week acclimatization period, all of the rabbits were then placed on normal rabbit chow supplemented with 1% cholesterol (ICN Biochemicals, Inc., Costa Mesa, Calif.), in order to induce fatty streak formation in their blood vessel walls. Rabbits in Group 1 were switched from water to an acetaminophen solution for about a 40 mg/kgrabbit APAP dose. A 40 mg/kg dose of APAP in a 2.5 kg rabbit is equivalent to about a 2800 mg/day dose in a 70 kg human. The other group of rabbits remained on water for the remainder of the study. The cages were monitored daily in order to assure that each rabbit consumed the contents of his respective water bottle.
Oxo-sterol concentrations in the isolated LDL were also determined by the method set forth in Hughes, et. al., “Cytotoxicity of Oxidized LDL to Porcine Aortic Smooth Muscle Cells Is Associated with the Oxysterols 7-ketocholesterol and 7-hydrocholesterol,” 14(7) Arterioscler. Thromb. 1177-85 (1994). In general, the oxysterols were initially separated from the LDL via a Bligh and Dyer extraction followed by extraction using amino-propyl solid phase extraction columns available from Varian Instruments in order to further separate the lipids by polarity. The oxysterol-containing eluents were then dried therefrom under a nitrogen atmosphere and derivatized with N,O-bis(trimethylsilyl)trifluooroacetamide) (“BSTFA”) in a test tube. 10 μl of cholestane was added to the dried eluent at the time of derivatization as an internal standard. The derivatized samples were then analyzed using a gas chromatograph column having a flame ionization detector .The column program included initial temperature of 250° C. for 2 minutes, followed by temperature increases of 8° C./minute to 325° C., and then a final 8 minute temperature hold at 325° C. The amount of oxysterols in the LDL were then quantitated using known standards by ratio of the peak area of the oxysterol to cholestane. The concentrations of oxysterols are set forth below in Table B: […]

isolated LDL [5] = assay: TBARS analysis of copper-mediated oxidation of isolated LDL; design: species or system New Zealand white rabbits; settings: 0.1 mg/ml LDL from APAP-fed rabbits, 5 μM CuSO4, 37° C., 4, 8 and 12 hours
Description: LDL Isolation: Plasma LDL was prepared by ultracentrifuation of a blood sample as disclosed in Havel, “The Distribution and Chemical Composition of Ultracentrifugally Separated Lpoproteins in Human Serum,” 34 JI. Clin. Inv. 1345 […], within a density cutoff of 1.020 g/ml to 1.055 g/ml and with the addition of 0.5 mg/ml ethylenediaminetetracetic acid (‘EDTA’) thereto. After adding a sample of this mixture to a semi-permable bag, the LDL was dialyzed therefrom against a vacuum-degassed 0.01 M Tris solution containing 0.15 M NaCl and 0.1 mg/ml EDTA under dark conditions and at 4° C. for 48 hours, followed by dialysis overnight using the same equipment but with a 0.01M phosphate buffer solution containing 0.15 M NaCl and no EDTA. The dialyzed LDL protein concentrations were then determined via the method set forth in Lowry, ‘Protein Measurement with the Folin Phenol Reagent,’ 226 J. Biol. Chem. 497-509 (1951). […] The concentrations of thiobarbituric acid reactive substances (“TBARS”) in each mixture were then measured with the same spectrophotometer as described by Streinbrecher, et al., “Decrease in reactive amino groups during oxidation or endothelial cell modification of LDL,” Arteriosclerosis 1987;7:135-143.

[6] = APAP-fed versus control rabbits

Structure (SMILES): CC(=O)Nc1ccc(O)cc1 [APAP, N-(4-hydroxyphenyl) acetamide]
- Average Fatty Streak/Total Aortic Area ([1]; about 40 mg/kg APAP in drinking water, control 0.58 + 0.06): 0.32 + 0.05
- Aortic fatty streak areas versus control ([1]; about 40 mg/kg APAP, p<0.001): significantly reduced aortic fatty streak areas
- Average Circulating total Plasma Cholesterol Level ([2]; APAP-fed rabbits, 1% cholesterol chow, 12 weeks, control 1441 ± 87): 1592 ± 43 mg/dL
- Amount of circulating cholesterol in the blood plasma versus control [2, 6]: did not produce a significant difference
- LDL lipid oxidation in vitro [3]: prevent low density lipoprotein (“LDL”) lipid oxidation in vitro
- Absorbance at 234 nm of isolated LDL (dienes) versus control (isolated LDL [4]): lower absorbance values
- Average 5b, 6b-epoxide concentration in LDL (oxysterols in LDL; APAP-fed rabbits, 1% cholesterol chow, 12 weeks, control 0.24 + 0.05): 0.12 + 0.13 nmol/mg LDL
- Average 5a, 6a-epoxide concentration in LDL (oxysterols in LDL; APAP-fed rabbits, 1% cholesterol chow, 12 weeks, control 0.49 + 0.08): 0.11 + 0.05 nmol/mg LDL
- Average 7bOH-cholesterol concentration in LDL (oxysterols in LDL; APAP-fed rabbits, 1% cholesterol chow, 12 weeks, control 1.01 + 0.26): 0.32 + 0.07 nmol/mg LDL
- Average 7aOH-cholesterol concentration in LDL (oxysterols in LDL; APAP-fed rabbits, 1% cholesterol chow, 12 weeks, control 2.31 + 0.62): 0.58 + 0.12 nmol/mg LDL
- Average 7keto-cholesterol concentration in LDL (oxysterols in LDL; APAP-fed rabbits, 1% cholesterol chow, 12 weeks, control 3.86 + 1.72): 0.41 + 0.14 nmol/mg LDL
- Decrease in 7-alpha hydroxycholesterol values (oxysterols in LDL; [6]): 4 fold
- Decrease in 7-beta hydroxycholesterol values (oxysterols in LDL; [6]): 3 fold
- Decrease in 7-keto cholesterol values (oxysterols in LDL; [6]): 9 fold
- TBARS formed during the LDL oxidation versus control (isolated LDL [5]): comparable
